Test results: patent US5093127A, “Preparation of FR115224 substrate for parenteral administration” (Fujisawa Pharmaceutical Co., Ltd., priority 1989, dated 1992)
Numbered stars: 1 amine (or outer) side, 2 acyl side, 3 side chain; on linkers, the order of the positions; unused ones are H or OH. Bridge positions count the residues as written; N and C are the ends. Square brackets hold non-standard residues; d marks the D form. Peptide text beside a SMILES is read from it. * marks the point of attachment. X2 = CN(/C(=C/c1ccc(O)cc1)C(=O)[*:2])[*:1]; aThr = C[C@H](O)[C@H](N)C(=O)O; X1 = CCCCCc1ccccc1CCC(=O)*

Assays:
[1] = 20° C.; cited from earlier work
[2] = Solubility test of FR115224 substance in water with cyclodextrins; format: physicochemical; conditions: for Solubility of FR115224 substance: distilled water, room temperature
Experimental: FR115224 substance (125 mg) was charged in 13 sample bottles, respectively and distilled water (2.5 ml) was added thereto.
Then, α-cyclodextrin, β-cyclodextrin, hydroxypropyl β-cyclodextrin or γ-cyclodextrin was charged to each of the sample bottles in amounts of […] (cyclodextrin content: 0.16% w/v), 2.5 mg (cyclodextrin content: 1% w/v) or 12.5 mg (cyclodextrin content: 5% w/v), respectively. No cyclodextrin was charged in one sample bottle, which was made control. After stirring at room temperature for 12 hours, the concentration of FR115224 substance in each aqueous phase was measured to determine the solubility of FR115224 substance.

For C(=C\c1ccccc1)/CN1CCN(C(c2ccccc2)c2ccccc2)CC1 [Cinnarizine], which “Increase of water solubility by inclusion compound with β-cyclodextrin” value [1] is on record?
Its value is “about 5 times”.

Which “Effect of cyclodextrin on the solubility of FR115224 substance in water” value ([2]; conclusion from Table 1) does the source give for CCCCCc1ccccc1CCC(=O)N[C@@H]1C(=O)N(C)/C(=C/c2ccc(O)cc2)C(=O)N[C@@H](CC(C)C)C(=O)N[C@H](Cc2ccccc2)C(=O)N[C@@H]([C@H](C)O)C(=O)N[C@@H](CC(N)=O)C(=O)N[C@@H](CO)C(=O)O[C@@H]1C [FR115224 substance] (X1-T[X2]L[dF][aThr]NS; ester 1-C) here?
The value was “markedly increase”.

What about the “Solubility of FR115224 substance” value ([2]; no cyclodextrin (0 % w/v, control), stirred 12 hours) of the same compound?
The value was 0.003 % w/v.

What about the “Solubility of FR115224 substance” value ([2]; hydroxypropyl β-cyclodextrin 0.16 % w/v, 12 hours) of the same compound?
Its value is 0.009 % w/v.

What about the “Solubility of FR115224 substance” value ([2]; hydroxypropyl β-cyclodextrin 1 % w/v, 12 hours) of the same compound?
The value was 0.06 % w/v.

What about the “Solubility of FR115224 substance” value ([2]; hydroxypropyl β-cyclodextrin 5 % w/v, 12 hours) of the same compound?
The value was 0.49 % w/v.

What about the “Solubility of FR115224 substance” value ([2]; α-cyclodextrin 0.16 % w/v, 12 hours) of the same compound?
The value was 0.008 % w/v.

What about the “Solubility of FR115224 substance” value ([2]; α-cyclodextrin 1 % w/v, 12 hours) of the same compound?
The value was 0.03 % w/v.

What about the “Solubility of FR115224 substance” value ([2]; α-cyclodextrin 5 % w/v, 12 hours) of the same compound?
Its value is 0.14 % w/v.

And the “Solubility of FR115224 substance” value ([2]; β-cyclodextrin 0.16 % w/v, 12 hours)?
The value was 0.013 % w/v.

And the “Solubility of FR115224 substance” value ([2]; β-cyclodextrin 1 % w/v, 12 hours)?
Its value is 0.11 % w/v.

What about the “Solubility of FR115224 substance” value ([2]; β-cyclodextrin 5 % w/v, 12 hours) of the same compound?
Its value is 0.34 % w/v.

And the “Solubility of FR115224 substance” value ([2]; γ-cyclodextrin 0.16 % w/v, 12 hours)?
The value was 0.006 % w/v.

And the “Solubility of FR115224 substance” value ([2]; γ-cyclodextrin 1 % w/v, 12 hours)?
Its value is 0.03 % w/v.

What about the “Solubility of FR115224 substance” value ([2]; γ-cyclodextrin 5 % w/v, 12 hours) of the same compound?
Its value is 0.16 % w/v.
